Results as given in ChEMBL document CHEMBL1158717, “A cytotoxic carotenoid from the marine sponge Prianos osiros” (J Nat Prod, 2005).
In brackets after ≈: the same amount, converted by molar mass.

Test system: HCT-116
Assay: Cytotoxicity against human HCT116 after 72 hrs by MTS assay
Assay type: functional, cell-based
Conditions: HCT-116, 72 h

In the case of `CC1=C(C#C/C(=C/C=C/C(C)=C/C=C/C=C(C)/C=C/C=C(\C)C(=O)/C=C2\C(C)(C)C[C@H](O)C[C@@]2(C)O)CO)C(C)(C)C[C@H](O)C1`, the IC50 is reported as 4.38 µg/mL (≈ 7.12 µM).
